Measured values as given in publication PMC7804430, “Synthesis and tumour cell uptake studies of gadolinium(III)–phosphonium complexes” (Scientific Reports, 2021).
pIC50: −log10 of the molar value.

What was measured:
[1] = Competition (challenge) stability assay with xylenol orange at acidic pH; type: physicochemical; settings: absorbance shift 433 to 573 nm
Description: In this work, the relative stability of complexes 6 and 7 were compared to the previously-reported archetypal Gd(III)-DO3A triphenylphosphonium complex (11, shown in Fig. 2) at acidic pH by means of a competition (challenge) assay using the lanthanoid(III) ion indicator xylenol orange[32]. These assays were performed under mildly acidic conditions to ensure the phenolic hydroxyl was protonated prior to chelation.
Solution stability assays were performed using the method described by Barge et al.[32]. Initially an acetate buffer solution (50 mM) was prepared, a portion of which was adjusted to pH 5.8 using NaOH, while other portions were adjusted to pH 5.0, 4.0, or 3.0 using glacial acetic acid. Xylenol orange (5.81 mg) was dissolved in the pH 5.8 acetate buffer (48.4 mL) to give a 10 × concentrated stock solution. These solutions were treated as light sensitive, work was conducted in minimal light and solutions were covered in foil.
25 mM stock solutions of each GdCl3, […] 11 were prepared in the various buffer solutions. […] The plates were agitated in a plate reader and allowed to equilibrate for 24 h. […] The plates were again agitated in a plate reader and allowed to equilibrate for 15 min at RT. The absorbance values were then determined at both 573 nm and 433 nm by means of a BMG LABTECH POLARstar Omega, UV Spectrometer, and the data plotted and processed using Graphpad Prism 7.

[2] = literature values for HPLC calibration curve; cited from earlier work
HF1 tumour cell line = system: HF1 tumour cell line; parameters: method as in PMID 19825958, PMID 15388578; settings: cited from earlier work

## [Cl][Gd]([Cl])[Cl] [GdCl3]
[1]; pH 5.0, 24 h
  % Gd^3+ retention: 0%
[1]; pH 5.8, 24 h
  % Gd^3+ retention: 0%

## Nc1ccccc1 [aniline]
[2]
  logD7.4 of calibration standards: 0.90

## c1ccc(N(c2ccccc2)c2ccccc2)cc1 [triphenylamine]
[2]
  logD7.4 of calibration standards: 5.74

## Motexafin-Gd [MGd]
HF1 tumour cell line; HF1 tumour cell line, read-out: Concentration resulting in 50% cell arrest
  pIC50: > 4.00
HF1 tumour cell line; in the absence of any X-ray irradiation
  Concentration exhibiting significant cytotoxicity: ca. 50 μM
